# Test results reported in patent US20210393565A1, “PREPARATION FOR USE TO INCREASE THE FORMATION OF ONE OR MORE SPECIALIZED PRO-RESOLVING LIPID MEDIATORS (SPM)” (Evonik Operations GmbH, priority 2018, published 2021).
# Columns and labels:
# Assay type in all cases: cell-based
# [1] = test system: Bacillus megaterium DSM 33296 cells; assay: Lipidometabolomics of culture supernatants with AvailOm dispersion formulation; settings: Bacillus megaterium DSM 33296, AvailOm dispersion formulation; net concentration
# Source text: (§1) Bacterial supernatant samples were subjected to lipid extraction using RP-phase solid phase extraction and subsequently analyzed by ultra performance liquid chromatography ESI tandem mass spectrometry (UPLC-MS/MS) according to a published procedure. Under these conditions approximately 40 different LM, including 5-hydroxy-eicosapentaenoic acid 5-HEPE, 8-HEPE, 11-HEPE, 12-HEPE, 15-HEPE, 18-HEPE, 5-hydroxy-eicosatetraenoic acid (5-HETE), 8-HETE, 11-HETE, 12-HETE, 15-HETE, 4-hydroxy-DHA (4-HDHA), 7-HDHA, 13-HDHA, 14-HDHA, 17-HDHA, lipoxin A4 (LXA4), LXB4, resolvin E1 (RvE1), RvE3, resolvin D1-5 (RvD1-5), AT-RvD1, RvD2, protectin D1 (PD1), AT-PD1, maresin 1(MaR1), MaR2, plus 4 fatty acid substrates can be detected with a lower limit of detection of 1 pg.
# (§2) 47 additional Bacillus megaterium strains sourced from various habitats were screened for their SPM production capacity to determine if this is a general phenomenon of the species Bacillus megaterium and to detect strain-specific differences in types and quantities of SPM being produced. Cells were cultured as detailed in example 4, with dispersion formulation of AvailOm® serving as omega-3 fatty acid source. Cell-free preparations of AvailOm® were treated and analyzed in parallel and served as controls for non-enzymatic, spontaneous formation of oxygenation products. It was observed that all tested strains produced measurable (>1 pg/ml) amounts of various SPM and precursors thereof, that these amounts were hugely different between the strains (up to 2.000 fold), and that concentrations of RvE3 were particularly high (up to 1.3 μg/ml) in most of the strains.
# (§3) Values given in table 7 display net concentrations of PUFA oxygenation products formed by two of the top performing strains, Bacillus megaterium DSM 33296 and Bacillus megaterium DSM 33299.
# [2] = test system: Bacillus megaterium DSM 33299 cells; assay: as above; settings: Bacillus megaterium DSM 33299, AvailOm dispersion formulation; net concentration
# Source text: as §1, §2, §3
# [3] = test system: Bacillus megaterium DSM 32963 cells; assay: Lipidometabolomics (UPLC-MS/MS) of culture supernatants with AvailOm, dissolved or as dispersion; settings: for Extracellular concentration of PUFA oxygenation product: − bile acids, net after subtraction of cell-free control
# Source text: as §1
# To investigate if Bacillus megaterium is capable of producing other PUFA oxygenation products in addition to 18-HEPE, a lipidometabolomics screening of supernatants from Bacillus megaterium strain 32963 cultured as in example 4 with AvailOm® was performed, either dissolved or in a dispersion formulation, with or without bile acids. Cell-free preparations of AvailOm® formulations were treated and analyzed in parallel and served as controls for non-enzymatic, spontaneous formation of oxygenation products. Values given in table 6 display net concentrations of products formed, i.e. after subtraction of control values. […] Concentrations of several SPM exceed by far the concentrations of SPM found in human plasma samples, which are typically in a range of ˜20-100 pg/ml. For comparison, human breast milk contains ˜6.000 pg/ml RvE1 and ˜10.000 pg/ml RvD1 [42].
Molecule,Extracellular concentration of PUFA oxygenation product [1],Extracellular concentration of PUFA oxygenation product [2],Extracellular concentration of PUFA oxygenation product ([3]; AvailOm dispersion),Extracellular concentration of PUFA oxygenation product ([3]; AvailOm),abundance with dispersion formulation and/or bile acids compared to AvailOm without both (in words) [3]
CC/C=C\C[C@H](O)/C=C/C=C\C[C@@H](O)/C=C/C=C/C=C\[C@@H](O)CCC(=O)O [RvD3],381 pg/mL,941 pg/mL,8409 pg/mL,178 pg/mL,–
"CC/C=C\C[C@@H](O)\C=C/C=C/C=C/[C@H](O)C/C=C\C/C=C\CCC(=O)O [AT-PD1 1, Aspirin-triggered PD1]",4558 pg/mL,10317 pg/mL,247 pg/mL,96 pg/mL,–
"CCCCC[C@H](O)[C@H](O)/C=C/C=C/C=C\C=C\[C@@H](O)CCCC(=O)O [LXB4, lipoxin B4]",–,–,76301 pg/mL,–,–
"CC/C=C\C/C=C\C/C=C\C/C=C\C=C\C(O)C/C=C\CCC(=O)O (stereo not drawn) [7-HDHA, 7-hydroxy-DHA]",202129 pg/mL,243080 pg/mL,–,–,–
"CC/C=C\C[C@@H](O)/C=C/C=C\C=C\C=C\[C@@H](O)[C@@H](O)C/C=C\CCC(=O)O [AT-RvD1, Aspirin-triggered RvD1]",9612 pg/mL,48243 pg/mL,4932 pg/mL,519 pg/mL,–
CCCCC/C=C\C[C@@H](O)/C=C/C=C/C=C/[C@@H](O)CCCC(=O)O [t-LTB4],1780 pg/mL,4181 pg/mL,667 pg/mL,360 pg/mL,–
11-hydroxy-eicosapentaenoic acid [11-HEPE],124860 pg/mL,63306 pg/mL,–,4659 pg/mL,lower
CC/C=C\C[C@H](O)/C=C\C=C\C/C=C/C=C/C=C/C(O)[C@@H](O)CCC(=O)O (stereo partly drawn) [RvD4],1986 pg/mL,2523 pg/mL,–,3681 pg/mL,–
12-hydroxy-eicosapentaenoic acid [12-HEPE],124701 pg/mL,79699 pg/mL,–,4413 pg/mL,lower
9-hydroxyoctadecadienoic acid [9-HODE],–,–,–,43 pg/mL,lower
"CCC=CCC=CCC=CCC=CC=CC(O)CCCC(=O)O (stereo not drawn) [5-HEPE, 5-hydroxy-eicosapentaenoic acid]",395188 pg/mL,989691 pg/mL,–,2253 pg/mL,lower
"CC/C=C\C[C@H](O)[C@@H](O)/C=C/C=C/C=C\C=C\[C@@H](O)CCCC(=O)O [LXB5, lipoxin B5]",–,–,669042 pg/mL,2376 pg/mL,–
RvD1,3626 pg/mL,4389 pg/mL,1863 pg/mL,598 pg/mL,–
"CC/C=C\C[C@H](O)/C=C/C=C\C=C\C=C\[C@@H](O)[C@@H](O)CCCC(=O)O [LXA5, lipoxin A5]",4693 pg/mL,128825 pg/mL,41263 pg/mL,7767 pg/mL,–
CC/C=C\C[C@H](O)/C=C/C=C\C/C=C\C=C\[C@@H](O)C/C=C\CCC(=O)O [RvD5],15079 pg/mL,34168 pg/mL,9016 pg/mL,68 pg/mL,–
CC/C=C\C[C@H](O)[C@H](O)/C=C/C=C/C=C\C=C\[C@@H](O)C/C=C\CCC(=O)O [RvD2],265 pg/mL,428 pg/mL,99 pg/mL,87 pg/mL,–
"CCCCC[C@H](O)/C=C/C=C\C=C\C=C\[C@@H](O)[C@@H](O)CCCC(=O)O [LXA4, lipoxin A4]",1157 pg/mL,1430 pg/mL,–,–,–
CC/C=C\C[C@H](O)/C=C/C=C\C=C\[C@@H](O)C/C=C\C/C=C\CCC(=O)O [PDX 1],78345 pg/mL,138918 pg/mL,19542 pg/mL,109 pg/mL,–
"CC/C=C\C[C@H](O)\C=C/C=C/C=C/[C@H](O)C/C=C\C/C=C\CCC(=O)O [PD1 1, protectin D1]",99029 pg/mL,75342 pg/mL,3841 pg/mL,113 pg/mL,–
"CC[C@@H](O)/C=C/C=C\C[C@@H](O)/C=C/C=C/C=C\[C@@H](O)CCCC(=O)O [RvE1, resolvin E1]",5840 pg/mL,28379 pg/mL,57826 pg/mL,88 pg/mL,–
"CC/C=C\C/C=C\C[C@H](O)[C@H](O)/C=C/C=C/C=C\C/C=C\CCC(=O)O [MaR2, maresin 2]",1522 pg/mL,1233 pg/mL,197 pg/mL,120 pg/mL,–
"CCC(O)/C=C/C=C\C/C=C\C/C=C\C/C=C\CCCC(=O)O (stereo not drawn) [18-HEPE, 18-hydroxy-eicosapentaenoic acid]",391397 pg/mL,217725 pg/mL,–,24463 pg/mL,lower
"CCCCC/C=C\C[C@@H](O)/C=C/C=C/C=C\[C@@H](O)CCCC(=O)O [LTB4, leukotriene B4]",1769 pg/mL,2206 pg/mL,–,171 pg/mL,–
5-hydroxy-eicosatetraenoic acid [5-HETE],15434 pg/mL,9356 pg/mL,–,13 pg/mL,lower
"CC/C=C\CC(O)/C=C/C=C\C/C=C\C/C=C\CCCC(=O)O (stereo not drawn) [15-HEPE, 15-hydroxy-eicosapentaenoic acid]",256797 pg/mL,151168 pg/mL,–,7536 pg/mL,lower
